According to patent US20120122991A1, “METHOD FOR TREATING CANCER BY INCREASING AMP-ACTIVATED KINASE ACTIVITY” (Dana-Farber Cancer Institute, Inc., priority 2003, published 2012):

Tested on: AMPK
Assay: Immunoblot of phospho-Thr172 AMPK and phospho-Ser79 ACC in MEFs
Type: cell-based, mouse
Details: 2 mM AICAR for 2 h
Method: FIG. 3a: Littermate MEFs of the indicated LKB1 genotypes were left untreated (NT) or treated with 0.1 mM H2O2 for 20 mins or 2 mM AICAR for 2 h. Total cell extracts were immunoblotted for phospho-Thr 172 AMPK or phospho Ser79 ACC, as well as for total AMPK and LKB1. FIG. 3b: An immortalized LKB1-deficient MEF cell line was reconstituted with human (hu) or mouse (ms) WT or KD LKB1 expressing retroviruses. The asterisk (*) represents a background band that serves as a loading control.
FIG. 6A: Subconfluent cycling littermate-matched primary MEFs of the indicated genotype were left untreated (NT) or were treated with 2 mM AICAR for 2 h. Total cell extracts were immunoblotted for phospho-Thr172 AMPK (P-AMPK), phospho Ser79 ACC (P-ACC), phospho-Thr389 S6K1 (P-S6K1), phospho-Ser9 GSK-3b (P-GSK-3), and phospho-Ser235/236 S6 ribosomal protein (P-S6). FIG. 6B: An immortalized LKB1−/− MEF cell line was reconstituted with vector (v), wild-type (wt) or kinase-dead (kd) human LKB1-expressing retroviruses. Cells were treated as in FIG. 6A. eIF4E was used as a loading control. *represents a cross-reactive band with the anti-LKB1 antisera as characterized previously (Shaw et al. (2004) Proc. Natl. Acad. Sci. USA 101, 3329-3335). FIG. 6C: Endogenous 5′ cap complexes were isolated from LKB1 primary MEFs as in A. 10% of the total cell lysate is shown in the left panels; cap complexes purified on 7-methyl sepharose are shown in right panels. Each were immunoblotted with total 4E-BP1 and eIF4E antibodies. eIF4E is shown as a loading control. FIG. 6D: Hela cells (which are LKB1-deficient) were transiently transfected with vector, FLAG-tagged wild-type, or kinase-dead LKB1 along with an HA-tagged S6K1 or an HA-tagged 4E-BP1 construct, then treated where indicated with 2 mM AICAR for 2 h. S6K1-immunoprecipitates were immunoblotted for activating phosphorylation of S6K1 as before, as well with anti-HA to control for levels. Lysates were immunoblotted with anti-FLAG to detect levels of LKB1 and with anti-HA to detect phosphorylation induced changes in 4E-BP1 mobility on SDS-PAGE.
Kinase Assays and Cellular Analysis: AMPK kinase activity was measured using the SAMS peptide as previously described (7). LKB1 phosphorylation of AMPK was carried out in kinase buffer (50 mM Tris pH 7.5, 10 mM MgCl2, 1 mM DTT, 100 μM ATP) for 20 mins at 30° C. For immunopreciptations of active LKB1 kinase, Flag-tagged LKB1 was co-transfected with an equimolar amount of STRAD expression plasmid into HT1080 cells and immunoprecipitated using M2-agarose (Sigma) 24 h post-transfection in NP40 lysis buffer26. Before kinase assays, immunoprecipitated LKB1 was washed 3× in lysis buffer then 2× in kinase buffer. Soluble MBP-AMPK was added at 5 μg per kinase reaction. […]

Q: For `NC(=O)c1ncn([C@@H]2O[C@H](CO)[C@@H](O)[C@H]2O)c1N` [AICAR, 5-aminoimidazole-4-carboxamide 1-β-D-ribofuranoside], which “Thr172 phosphorylation of AMPK” value (LKB1 null MEFs) is on record?
A: Its value is “complete loss of Thr172 phosphorylation”.

Q: What about the “phosphorylation of ACC (Ser79)” value (LKB1 null MEFs) of the same molecule?
A: The value was “nearly abolished”.

Q: And the AMPK activation (Lkb1-deficient fibroblasts)?
A: The AMPK activation was “severely attenuated”.

Q: And the AMPK activation (wild-type MEFs)?
A: The AMPK activation was “activated”.
